Measured values as given in patent US6660772B2, “Use of 2-amino-1-(4-hydroxy-2-methanesulfonamidophenyl)ethanol for treating urinary incontinence” (Boehringer Ingelheim Pharma KG, priority 2001, dated 2003).

System: dog
Assay: Activity (maximum contraction) in the dog compared with noradrenaline
Conditions: percentage of contraction compared with noradrenaline
Protocol: The efficacy and selectivity of the compound according to the invention is determined as follows, using the same findings as described in 1:
Maximum contraction in the dog and activity on human urethra are percentages of contraction compared with noradrenaline. Selectivity in the dog is the difference obtained from the percentage contraction of the dog's femoral artery at 10^−5 M and percentage contraction of the carotid artery in the dog at 10^−5 M.

Row | Structure (SMILES) | Activity in the Dog (maximum contraction) [%]
1 | CS(=O)(=O)Nc1cc(C(O)CN)ccc1O (centres unmarked) [Compound 1, 2-amino-1-(4-hydroxy-3-methanesulfonamidophenyl)ethanol] | 103
2 | CS(=O)(=O)Nc1ccc(F)c([C@@H](O)CN)c1 [Compound 2, (−)-R-2-Amino-1-(2-fluoro-5-methanesulfonamidophenyl)ethanol] | 79
